EC50 and inhibition data for two molecules are collected here from article PMC7182431, “CNGA3 acts as a cold sensor in hypothalamic neurons” (eLife, 2020).

Type in all cases: cell-based
One assay concerns the target T1, mCNGA3 (mouse CNGA3) (Mus musculus, UniProt A0A6H2E2T0).
T1 construct: HEK293T (PIEZO1-deleted) cells, also Xenopus oocytes; homomer
T1 sequence (A0A6H2E2T0 1-630): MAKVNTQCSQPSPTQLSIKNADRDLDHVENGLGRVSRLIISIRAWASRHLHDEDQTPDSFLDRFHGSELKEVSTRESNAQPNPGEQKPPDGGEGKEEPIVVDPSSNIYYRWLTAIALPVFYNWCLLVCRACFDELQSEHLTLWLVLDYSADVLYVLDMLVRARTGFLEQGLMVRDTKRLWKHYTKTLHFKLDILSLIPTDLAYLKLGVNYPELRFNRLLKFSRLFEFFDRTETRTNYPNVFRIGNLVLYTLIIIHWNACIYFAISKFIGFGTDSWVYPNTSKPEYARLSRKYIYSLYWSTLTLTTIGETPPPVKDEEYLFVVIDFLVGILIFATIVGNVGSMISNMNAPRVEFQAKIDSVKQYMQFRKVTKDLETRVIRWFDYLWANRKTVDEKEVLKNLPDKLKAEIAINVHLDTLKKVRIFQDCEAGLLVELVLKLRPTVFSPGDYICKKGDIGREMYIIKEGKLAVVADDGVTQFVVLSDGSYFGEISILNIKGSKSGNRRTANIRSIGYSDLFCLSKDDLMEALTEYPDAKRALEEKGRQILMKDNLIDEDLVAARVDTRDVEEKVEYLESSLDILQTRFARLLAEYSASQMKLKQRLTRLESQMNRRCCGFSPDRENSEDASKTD
As to the kind of experiment: inside-out patch clamp, HEK293T, Hill fit. (In patch-clamp work, channel activity is measured electrically.)

In a further assay the target is T2, sqCNGA3 (squirrel CNGA3) (Ictidomys tridecemlineatus, UniProt A0A6H2E3H4).
T2 construct: pMO vector, no tag stated; HEK293T (PIEZO1-deleted) cells, also Xenopus oocytes; homomer
T2 sequence (A0A6H2E3H4 1-672): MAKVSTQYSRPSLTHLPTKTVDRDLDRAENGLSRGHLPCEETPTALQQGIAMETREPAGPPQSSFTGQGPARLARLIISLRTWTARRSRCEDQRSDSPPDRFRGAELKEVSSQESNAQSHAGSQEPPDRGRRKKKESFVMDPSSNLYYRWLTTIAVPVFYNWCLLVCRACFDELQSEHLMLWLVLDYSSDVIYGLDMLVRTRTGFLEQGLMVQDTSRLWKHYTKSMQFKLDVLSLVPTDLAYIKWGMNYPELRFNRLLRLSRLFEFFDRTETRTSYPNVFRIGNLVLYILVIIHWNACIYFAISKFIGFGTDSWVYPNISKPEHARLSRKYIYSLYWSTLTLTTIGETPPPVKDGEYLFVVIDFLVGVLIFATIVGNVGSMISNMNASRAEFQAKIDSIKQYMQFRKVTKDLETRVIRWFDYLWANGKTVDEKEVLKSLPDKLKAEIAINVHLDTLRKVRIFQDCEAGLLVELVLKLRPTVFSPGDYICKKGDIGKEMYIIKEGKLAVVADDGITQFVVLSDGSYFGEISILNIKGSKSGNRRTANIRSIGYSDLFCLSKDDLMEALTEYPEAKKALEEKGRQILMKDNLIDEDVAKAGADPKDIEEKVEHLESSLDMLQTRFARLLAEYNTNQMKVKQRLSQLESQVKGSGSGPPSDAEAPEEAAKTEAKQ
As to the kind of experiment: inside-out patch clamp, HEK293T, Hill fit.

Assay [1] has as its target T3, CNGA3-CNGB1 heteromers (mCNGA3 with mCNGB1) (Mus musculus, UniProt A0A6H2E2T0+E1AZ71).
T3 construct: full-length subunits co-expressed in Xenopus oocytes from pMO vector; mixture with CNGA3 homomers likely
The assay is described as follows: voltage clamp, Xenopus oocytes, inhibition of cold-activated current. The following applies: 100 µM extracellular drug, 1 µM intracellular cGMP, -80 mV, cooling; inhibitor; mixed with CNGA3 homomers.

T3 sequence (E1AZ71 whole entry, one chain of several): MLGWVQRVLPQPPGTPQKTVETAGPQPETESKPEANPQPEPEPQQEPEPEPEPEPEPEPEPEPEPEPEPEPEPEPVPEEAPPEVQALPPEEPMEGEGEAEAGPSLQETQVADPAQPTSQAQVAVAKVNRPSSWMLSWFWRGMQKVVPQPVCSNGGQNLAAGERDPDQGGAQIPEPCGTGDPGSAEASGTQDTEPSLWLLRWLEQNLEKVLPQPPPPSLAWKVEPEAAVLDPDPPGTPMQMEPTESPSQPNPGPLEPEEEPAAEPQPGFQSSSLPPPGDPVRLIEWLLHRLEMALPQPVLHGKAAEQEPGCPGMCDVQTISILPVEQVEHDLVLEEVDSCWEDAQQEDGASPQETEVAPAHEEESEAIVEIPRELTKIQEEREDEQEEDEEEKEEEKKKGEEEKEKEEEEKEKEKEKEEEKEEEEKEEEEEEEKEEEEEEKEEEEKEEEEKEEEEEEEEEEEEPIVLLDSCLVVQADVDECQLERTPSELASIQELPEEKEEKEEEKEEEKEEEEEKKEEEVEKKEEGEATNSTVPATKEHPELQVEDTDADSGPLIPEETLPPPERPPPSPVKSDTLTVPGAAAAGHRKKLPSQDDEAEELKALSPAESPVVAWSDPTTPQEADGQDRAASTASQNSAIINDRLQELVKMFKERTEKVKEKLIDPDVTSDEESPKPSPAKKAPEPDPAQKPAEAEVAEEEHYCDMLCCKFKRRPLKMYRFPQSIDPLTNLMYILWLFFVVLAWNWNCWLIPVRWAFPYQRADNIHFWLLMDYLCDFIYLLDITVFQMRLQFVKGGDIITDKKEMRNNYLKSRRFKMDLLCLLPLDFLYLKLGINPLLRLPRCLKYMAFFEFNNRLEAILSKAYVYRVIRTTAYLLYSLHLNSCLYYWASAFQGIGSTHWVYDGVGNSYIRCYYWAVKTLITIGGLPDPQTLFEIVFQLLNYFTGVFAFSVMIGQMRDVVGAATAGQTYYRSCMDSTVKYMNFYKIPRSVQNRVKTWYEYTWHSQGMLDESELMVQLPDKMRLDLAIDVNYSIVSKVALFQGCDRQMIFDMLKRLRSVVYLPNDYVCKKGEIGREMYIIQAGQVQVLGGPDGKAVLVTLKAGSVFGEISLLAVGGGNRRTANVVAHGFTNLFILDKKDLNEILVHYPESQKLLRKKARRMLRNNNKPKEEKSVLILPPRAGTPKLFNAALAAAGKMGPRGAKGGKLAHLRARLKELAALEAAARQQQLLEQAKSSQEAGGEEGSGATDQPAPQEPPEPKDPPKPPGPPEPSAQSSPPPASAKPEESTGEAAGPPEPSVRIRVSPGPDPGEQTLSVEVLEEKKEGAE

As usually defined, the EC50 is the concentration needed to bring the measured effect to its halfway point. As for `Nc1nc2c(ncn2[C@@H]2O[C@@H]3COP(=O)(O)O[C@H]3[C@H]2O)c(=O)[nH]1` [cGMP], the 50% effective concentration (EC50) on mCNGA3 (mouse CNGA3) was found to be 21.8 ± 5.48 µM; at sqCNGA3 (squirrel CNGA3), 26.4 ± 1.12 µM.

`COc1ccc([C@H]2Sc3ccccc3N(CCN(C)C)C(=O)[C@H]2OC(C)=O)cc1` [l-cis-diltiazem]: the inhibition result in assay [1] was “CNGA3-CNGB1 heteromers can form a cold-activated l-cis-diltiazem-sensitive ion channel”.
